Values of other authors, collected in patent publication US7678762B2, “Methods for reducing the risk of hypoglycemia” (DiObex, Inc., priority 2002, dated 2010).

What was measured:
[1] = relative to normal glucagon
[2] = relative to normal glucagon; remark: listed apart in the source

What does the source list for “glucagon variant with a Phe at position 18: glucagon variant with a Phe at position 18”?
binding affinity [1]: 4.7%; relative potency [2]: 0.9%

With “variant glucagon Lys 17 and 18, Glu 21: variant glucagon with a Lys substitution at positions 17 and 18 and a Glu substitution at position 21 (Sturm et al.) (HSQGTFTSDYSKYLDSKKAQEFVQWLMNT; Glucagon; UniProt P01275 53-81, looked up, variant R17K R18K D21E)” as the substance, how does the binding affinity [1] read?
Its binding affinity is 500%.

And the relative potency [2]?
The relative potency was 700%.

What does the source list for “variant glucagon amide Lys 17: variant glucagon amide with only a Lys substitution at position 17”?
binding affinity [1]: 220%; relative potency [2]: 230%
